In patent US7534766B2, “Glucuronide metabolites and epimers thereof of tigecycline” (Wyeth, priority 2004, dated 2009):
Read-outs that look alike come from different tables or passages of the source.

Assays:
[1] = male, human, in vivo
Description: (§1) An open-label, inpatient, multiple-dose tigecycline, single-dose [^14C]tigecycline metabolic disposition and mass balance study was performed in six healthy male volunteers. The clinical protocol called for twelve subjects. Of these twelve, six received the radioactive dose (subjects 1, 4, 5, 6, 7, and 8 with subject 8 later dropping out of the study.) Eligible subjects were selected based on inclusion/exclusion criteria, medical history, physical examination and additional procedures outlined in the study protocol. Each subject received a 100 mg loading dose on the morning of Day 1, followed by a 50 mg maintenance dose every 12 hours for an additional 5 doses. On the morning of study Day 4, six subjects received a single 50 mg dose of [^14C]tigecycline (50 μCi). Each tigecycline dose was administered via a 30-minute intravenous infusion.
(§2) Serum samples were collected for metabolite profiling prior to tigecycline dosing and 1, 4, 8, 24 and 48 hours following the [^14C]-labeled dose. For metabolite profiling, urine samples were collected at 0-4, 4-8, 8-24 and 24-48 hours and fecal samples were collected up to 48 hours following the [^14C]-labeled dose. Serum and urine samples, and fecal homogenates were shipped on dry ice to the Biotransformation Division of Drug Safety and Metabolism, Wyeth Research, Collegeville, Pa. The details of the sample collection and sample storage are described in the mass balance portion of the study. The 24-48 hour urine and fecal samples for subject #6 were incomplete since the subject withdrew from the study. While samples from this subject were used for metabolite profiling, the samples were not included in the mass balance calculations.
Individual fecal sample homogenates, prepared from each fecal sample collected up to 48 hours following the [^14C]-labeled tigecycline dose, that contained greater than 8000 dpm/g were analyzed for metabolite profiles. The preparation of the fecal sample homogenates is described in detail in the mass balance portion of the study. Briefly, fecal samples were homogenized with 3 to 4 volumes of ice-cold water by weight at ABC Laboratories (Columbia, Mo.) and shipped frozen to the Biotransformation Division of Drug Safety and Metabolism, Wyeth Research, Collegeville, Pa. For the extraction of radioactivity, fecal homogenates were thawed on ice and aliquots (approximately 1 g) transferred to 15 mL tubes. Three volumes of acetone were added and the samples mixed for 1 minute using a multi-tube vortex mixer. Samples were centrifuged for 15 minutes at 2500 rpm and 4° C. in a Sorvall Super T21 centrifuge. The supernatant was transferred to a fresh tube and the pellet re-suspended with 1 mL of water and 80 μL of 0.5 M EDTA, and re-extracted as described above. The pellet was re-extracted in this manner a total of three times and the supernatants pooled. The supernatant was evaporated to dryness under a stream of nitrogen using a Turbovap Model LV. The residue was re-suspended in 500 μL of water and centrifuged for 10 minutes at 14,000 rpm and room temperature using a Model 5415C Eppendorf centrifuge. The supernatant was transferred to an HPLC vial, assayed for radioactivity and for metabolite profiles using HPLC with radioactivity detection. Selected samples were also analyzed by LC/MS.
(§3) HPLC analyses were performed using a Waters 2695 Alliance Separation Module (Waters Corp., Milford, Mass.), a Waters Model 2487 dual wavelength UV absorbance detector, set to monitor 350 nm, and was in-line with a Gilson 215 liquid handler (Gilson, Middleton, Wis.) equipped to collect fractions at 20 second intervals.

[2] = in vivo
Description: as §1, §2
Individual serum samples, collected 1, 4 and 8 hours following the [^14C]-labeled tigecycline dose, were analyzed for metabolite profiles. […] In order to minimize the sample volume, each serum sample was divided into two samples of equal volume (approximately 9 Ml each) and extracted and analyzed separately. […] The residue was reconstituted in 300 μL of acetonitrile/water (1:9), centrifuged for 10 minutes at 14,000 rpm and room temperature using a Model 5415C Eppendorf centrifuge (Brinkmann Instruments, Westbury, N.Y.) and assayed for radioactivity and by HPLC. Selected samples were also analyzed by LC/MS.
as §3, with “intervals. Fractions were collected into 96-well deep well Luma plates and analyzed using TopCount NXT. […]” for “intervals.”

[3] = Tigecycline metabolites identified in CD-1 mouse serum and urine and rabbit serum samples (LC/MS); format: in vivo
Description: The column temperature was 25° C. The flow rate was 0.2 mL/min. […] Gradient 1 was used for metabolite identification (qualitative analysis).
LC/MS analysis was conducted on extracts of serum and from CD-1 mice and rabbits, and on urine from CD-1 mice. The mass spectral data for tigecycline and its metabolites are discussed below.

Row | Compound | percent of the fecal radioactivity [1] | Estimated Concentrations in fecal homogenate ([1]; 24.2 h) | Relative Distribution (%) of radioactivity in extracted fecal homogenate ([1]; 24.2 h) [%] | Estimated Concentrations in fecal homogenate ([1]; 24.6 h) | Relative Distribution (%) of radioactivity in extracted fecal homogenate ([1]; 24.6 h) [%] | Estimated Concentrations in fecal homogenate ([1]; 25.2 h) | Relative Distribution (%) of radioactivity in extracted fecal homogenate ([1]; 25.2 h) [%] | Estimated Concentrations in fecal homogenate ([1]; 29.8 h) | Relative Distribution (%) of radioactivity in extracted fecal homogenate ([1]; 29.8 h) [%] | Estimated Concentrations in fecal homogenate ([1]; 30 h) | Relative Distribution (%) of radioactivity in extracted fecal homogenate ([1]; 30 h) [%] | Estimated Concentrations in fecal homogenate ([1]; 32 h) | Relative Distribution (%) of radioactivity in extracted fecal homogenate ([1]; 32 h) [%] | Estimated Concentrations in fecal homogenate ([1]; 34.2 h) | Relative Distribution (%) of radioactivity in extracted fecal homogenate ([1]; 34.2 h) [%] | Estimated Concentrations in fecal homogenate ([1]; 41.8 h) | Relative Distribution (%) of radioactivity in extracted fecal homogenate ([1]; 41.8 h) [%] | percent of the radioactivity in serum ([2]; male, human) | Species and matrix in which identified ([3]; in vivo, iv) | other results
1 | CC(C)(C)NCC(=O)O [Metabolite M3a, t-butylaminoacetic acid] | 4-14% | (0.30) mg-Tigecycline Equivalents/Collection | 13.9 | (0.25) mg-Tigecycline Equivalents/Collection | 6.2 | (0.81) mg-Tigecycline Equivalents/Collection | 7.5 | (0.49) mg-Tigecycline Equivalents/Collection | 4.1 | (0.55) mg-Tigecycline Equivalents/Collection | 5.9 | (0.20) mg-Tigecycline Equivalents/Collection | 4.2 | (0.17) mg-Tigecycline Equivalents/Collection | 3.9 | (0.56) mg-Tigecycline Equivalents/Collection | 6.7 | 10-20% |  | 
2 | CN(C)c1cc(NC(=O)CNC(C)(C)C)c(O)c2c1C[C@H]1C[C@H]3[C@@H](N(C)C)C(O[C@@H]4O[C@H](C(=O)O)[C@@H](O)[C@H](O)[C@H]4O)=C(C(N)=O)C(=O)[C@@]3(O)C(O)=C1C2=O [Metabolite M6, epimer of tigecycline glucuronide] | up to 9% | 0.13 mg-Tigecycline Equivalents/Collection | 5.8 |  |  | 0.44 mg-Tigecycline Equivalents/Collection | 4.1 | 0.82 mg-Tigecycline Equivalents/Collection | 6.8 | 0.52 mg-Tigecycline Equivalents/Collection | 5.6 | 0.14 mg-Tigecycline Equivalents/Collection | 3.0 | 0.32 mg-Tigecycline Equivalents/Collection | 7.5 | 0.75 mg-Tigecycline Equivalents/Collection | 8.9 | less than 4% | R-S, M-S, M-U | detection in serum samples [2]: approximately half the serum samples
3 | CN(C)c1cc(NC(=O)CNC(C)(C)C)c(O)c2c1C[C@H]1C[C@H]3[C@H](N(C)C)C(O)=C(C(N)=O)C(=O)[C@@]3(O)C(O)=C1C2=O [Tigecycline] | 28-51% | 0.97 mg-Tigecycline Equivalents/Collection | 44.9 | 2.0 mg-Tigecycline Equivalents/Collection | 47.7 | 4.3 mg-Tigecycline Equivalents/Collection | 39.9 | 4.7 mg-Tigecycline Equivalents/Collection | 39.1 | 4.5 mg-Tigecycline Equivalents/Collection | 48.3 | 2.4 mg-Tigecycline Equivalents/Collection | 50.7 | 1.4 mg-Tigecycline Equivalents/Collection | 32.8 | 2.4 mg-Tigecycline Equivalents/Collection | 28.1 |  |  | Species and matrix in which identified ([3]; single IV tigecycline dose, LC/MS): R-S, M-S, M-U; percent of fecal radioactivity after correcting for the epimer formed during the extraction process [1]: 39-66%; percent of serum radioactivity after correcting for the epimer formed during the extraction ([2]; male, human): 59-80%
4 | CN(C)c1cc(NC(=O)CNC(C)(C)C)c(O)c2c1C[C@H]1C[C@H]3C(N(C)C)C(O[C@@H]4O[C@H](C(=O)O)[C@@H](O)[C@H](O)[C@H]4O)=C(C(N)=O)C(=O)[C@@]3(O)C(O)=C1C2=O (stereo in doubt) [Metabolite M7, tigecycline glucuronide] | 10-26% | 0.51 mg-Tigecycline Equivalents/Collection | 23.5 | 0.40 mg-Tigecycline Equivalents/Collection | 9.8 | 1.1 mg-Tigecycline Equivalents/Collection | 10.4 | 2.6 mg-Tigecycline Equivalents/Collection | 21.6 | 1.2 mg-Tigecycline Equivalents/Collection | 13.3 | 0.49 mg-Tigecycline Equivalents/Collection | 10.4 | 1.1 mg-Tigecycline Equivalents/Collection | 26.3 | 1.8 mg-Tigecycline Equivalents/Collection | 21.3 |  | R-S, M-S, M-U | 
